Reference: US20230303599A1, “PRODRUGS OF PHOSPHONAMIDE NUCLEOTIDE ANALOGUES AND THEIR PHARMACEUTICAL USE” (priority 2020, published 2023)
pEC50: −log10 of the molar value. In brackets after ≈: the same amount, converted by molar mass.

How the values were obtained:
[1] = Cytotoxicity assay in MT-4 cells; type: cell-based; conditions: human, uninfected MT-4 cells, average of at least two independent experiments, read-out: MT4 CC50
Summary of the method: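 Uninfected MT-4 cells were incubated 5 days at 37 °C with 1:3 serially diluted compound in RPMI (10% FBS), with 10 μM puromycin as baseline cytotoxicity. Viability was read by CellTiter-Glo luminescence. Values are concentrations giving 50% luminescence decrease, from sigmoidal dose-response fits.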

HBV = experiment: Antiviral (HBV) assay in primary human hepatocytes (PHHs); type: cell-based; conditions: Hepatitis B virus, Hepatocyte, 120 h; HBV (GTD) infected PHH, 5 days, HBV DNA in supernatant; average of at least two independent experiments
Protocol: Example 106: Antiviral (HBV) Assay in Primary Human Hepatocytes (PHHs)
Cryopreserved PHH were thawed, recovered by centrifugation at 100 g in cryopreserved hepatocyte recovery medium (Thermo Fisher Scientific; CM7500), and plated on collagen matrix (Life Technologies; Catalog Number: R-011-K) coated T225 flasks (Corning CellBIND, Catalog Number: 3293) at a density of 25E6 live cells in 60 mls media. Cells were plated in William's E medium (Thermo Fisher Scientific; A1217601) supplemented with 3.6% hepatocyte thawing and plating supplement (Thermo Fisher Scientific, A15563), 5% fetal bovine serum (Thermo Fisher Scientific; 16000-036), 1 μM dexamethasone (Thermo Fisher Scientific, A15563), and 0.2% Torpedo antibiotic mix (Bioreclamation; Z990008). The plating medium was removed after 14 hours and the cells were subsequently cultured in maintenance medium: William's E medium supplemented with 4% hepatocyte maintenance supplement (Thermo Fisher Scientific; AI15564), 2% fetal bovine serum, 0.1μ M dexamethasone, 1.5% DMSO (Sigma-Aldrich, St. Louis, MO; D8418), and 0.2% Torpedo antibiotic mix. Approximately 24 hours after plating, PHH were infected with HepAD38-derived GTD virus at 500 viral genome equivalents per cell in PHH maintenance medium supplemented with 4% PEG 8000 (Promega, Madison, WI; V3011). Infections were allowed to proceed for 24 hours before removing the remaining extracellular virions by washing with maintenance medium three times. After allowing viral infection to take place for 3 days, the infected cells were harvested from the flasks by trypsinization (0.25X in PBS without Ca/Mg, 25 minutes) following a 4 minute 0.5X Versene (Life Technologies Catalog Number: 15040-066) treatment and two PBS washes. Trypsinized cells were inactivated in 10% FBS containing maintenance medium, centrifuged 6 minutes at 50 g, resuspended in hepatocyte maintenance medium, filtered through a 40 uM cell strainer, and adjusted to a density of 0.25E6 cells/ml. Infected cells were seeded on 384 well collagen coated plates (Greiner, Austria) at a density of 20,000 cells/well containing serially diluted compounds of the present disclosure or DMSO (0.5%) in a final volume of 80 μl. The assay plates were incubated for a period of 5 days and the antiviral activity of the test compounds were assayed by detecting the presence of HBV DNA in the culture supernatant using the QuantiGene™ 2.0 nucleic acid quantification kit (Affymetrix, Santa Clara, CA).

[2] = Cytotoxicity assay in primary human hepatocytes (PHHs); type: cell-based; conditions: HBV-infected primary human hepatocytes, HBV-infected PHH, Cell Titer Glo, average of at least two independent experiments
Protocol: Example 107: Cytotoxicity Assay in Primary Human Hepatocytes (PHHs)
The HBV-infected primary human hepatocytes are seeded (20K cells/well in 80 uL of Media) in 384well collagen coated plates pre-spotted with compounds. After 5 days, 40 ul of cell supernatant is removed to quantify HBV DNA levels as described in Example 106. Then, 40 ul Cell Titer Glo Reagent (Promega Catalog Number: G7572) is added to the remaining cells and luminescence is measured on the EnVision microplate reader.

[3] = Kinetic solubility analysis; type: physicochemical; conditions: 1× PBS, 24.2 °C, aqueous buffer, kinetic from dmso stock; pH 7.4 PBS, 1% DMSO, 24-hour incubation at ambient temperature
Summary of the method: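 Compounds from 10 mM DMSO stocks were incubated in 0.1 N HCl or 1× PBS pH 7.4 (1.0% DMSO, 100 μM maximum theoretical) for 24 h at 24.2-27.5 °C, then vacuum filtered. Filtrates were quantified in μM by chemiluminescent nitrogen detection against a calibration curve, corrected for background nitrogen; values for adjacent ring-nitrogen compounds were raised ~25%.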

## C[C@H](Cn1cnc2c(N)ncnc21)OCP(=O)(NC(C)(C)C(=O)O[C@H]1C[C@H](C(C)(C)C)C1)NC(C)(C)C(=O)O[C@H]1C[C@H](C(C)(C)C)C1 [Example 52, Bis((1R,3R)-3-(tert-butyl)cyclobutyl) 2,2′-((((((R)-1-(6-amino-9H-purin-9-yl)propan-2-yl)oxy)methyl)phosphoryl)bis(azanediyl))bis(2-methylpropanoate)]
[1]
  CC50 at 5 days: 7190 nM
HBV
  pEC50: 7.84
[2]
  CC50 at 5 days: > 100 nM
[3]
  solubility kinetic at 24 h: < 1 µg/mL

## C[C@H](Cn1cnc2c(N)ncnc21)OCP(=O)(NC(C)(C)C(=O)OCC1CCC2(CCC2)CC1)NC(C)(C)C(=O)OCC1CCC2(CCC2)CC1 (stereo partly drawn) [Example 53, Bis(spiro[3.5]nonan-7-ylmethyl) 2,2′-(((((1-(6-amino-9H-purin-9-yl)propan-2-yl)oxy)methyl)phosphoryl)bis(azanediyl))(R)-bis(2-methylpropanoate)]
[1]
  CC50 at 5 days: 7550 nM
HBV
  pEC50: 8.08
[2]
  CC50 at 5 days: > 100 nM
[3]
  solubility kinetic at 24 h: < 1 µg/mL

## CCC(C)(C)CCOC(=O)C(C)(C)NP(=O)(CO[C@H](C)Cn1cnc2c(N)ncnc21)NC(C)(C)C(=O)OCCC(C)(C)CC [Example 54, Bis(3,3-dimethylpentyl) 2,2′-(((((1-(6-amino-9H-purin-9-yl)propan-2-yl)oxy)methyl)phosphoryl)bis(azanediyl))(R)-bis(2-methylpropanoate)]
[1]
  CC50 at 5 days: 6720 nM
HBV
  pEC50: 8.35
[2]
  CC50 at 5 days: > 100 nM
[3]
  solubility kinetic at 24 h: 12 µg/mL (≈ 18.4 µM)

## C[C@H](Cn1cnc2c(N)ncnc21)OCP(=O)(NC(C)(C)C(=O)O[C@H](C)C1CCCCC1)NC(C)(C)C(=O)O[C@H](C)C1CCCCC1 [Example 55, Bis((R)-1-cyclohexylethyl) 2,2′-((((((R)-1-(6-amino-9H-purin-9-yl)propan-2-yl)oxy)methyl)phosphoryl)bis(azanediyl))bis(2-methylpropanoate)]
[1]
  CC50 at 5 days: 9420 nM
HBV
  pEC50: 8.20
[2]
  CC50 at 5 days: > 100 nM
[3]
  solubility kinetic at 24 h: < 1 µg/mL

## C[C@H](Cn1cnc2c(N)ncnc21)OCP(=O)(NC(C)(C)C(=O)O[C@@H](C)C1CCCCC1)NC(C)(C)C(=O)O[C@@H](C)C1CCCCC1 [Example 56, Bis((S)-1-cyclohexylethyl) 2,2′-((((((R)-1-(6-amino-9H-purin-9-yl)propan-2-yl)oxy)methyl)phosphoryl)bis(azanediyl))bis(2-methylpropanoate)]
[1]
  CC50 at 5 days: 9650 nM
HBV
  pEC50: 8.40
[2]
  CC50 at 5 days: > 100 nM
[3]
  solubility kinetic at 24 h: 5 µg/mL (≈ 7.38 µM)

## C[C@H](Cn1cnc2c(N)ncnc21)OCP(=O)(NC(C)(C)C(=O)OCC1CC2(C1)CC1(CCC1)C2)NC(C)(C)C(=O)OCC1CC2(C1)CC1(CCC1)C2 [Example 57, Bis(dispiro[3.1.3^6.1^4]decan-2-ylmethyl) 2,2′-(((((1-(6-amino-9H-purin-9-yl)propan-2-yl)oxy)methyl)phosphoryl)bis(azanediyl))(R)-bis(2-methylpropanoate)]
[1]
  CC50 at 5 days: 6620 nM
HBV
  pEC50: 8.33
[2]
  CC50 at 5 days: > 100 nM
[3]
  solubility kinetic at 24 h: < 1 µg/mL

## C[C@H](Cn1cnc2c(N)ncnc21)OCP(=O)(NC(C)(C)C(=O)OCC1CC2(C1)CC(F)(F)C2)NC(C)(C)C(=O)OCC1CC2(C1)CC(F)(F)C2 [Example 58, Bis((6,6-difluorospiro[3.3]heptan-2-yl)methyl) 2,2′-(((((1-(6-amino-9H-purin-9-yl)propan-2-yl)oxy)methyl)phosphoryl)bis(azanediyl))(R)-bis(2-methylpropanoate)]
[1]
  CC50 at 5 days: 3680 nM
HBV
  pEC50: 8.90
[2]
  CC50 at 5 days: > 100 nM
[3]
  solubility kinetic at 24 h: 51 µg/mL (≈ 68.4 µM)

## C[C@H](Cn1cnc2c(N)ncnc21)OCP(=O)(NC(C)(C)C(=O)OCC12CC3CC(CC(C3)C1)C2)NC(C)(C)C(=O)OCC12CC3CC(CC(C3)C1)C2 [Example 59, Bis(((1S,3S)-adamantan-1-yl)methyl) 2,2′-((((((R)-1-(6-amino-9H-purin-9-yl)propan-2-yl)oxy)methyl)phosphoryl)bis(azanediyl))bis(2-methylpropanoate)]
[1]
  CC50 at 5 days: 6960 nM
HBV
  pEC50: 8.19
[2]
  CC50 at 5 days: > 100 nM
[3]
  solubility kinetic at 24 h: < 1 µg/mL

## C[C@H](Cn1cnc2c(N)ncnc21)OCP(=O)(NC(C)(C)C(=O)O[C@@H]1C[C@@H]2C[C@@H]2C1)NC(C)(C)C(=O)O[C@@H]1C[C@@H]2C[C@@H]2C1 [Example 60, Di((1R,3R,5S)-bicyclo[3.1.0]hexan-3-yl) 2,2′-((((((R)-1-(6-amino-9H-purin-9-yl)propan-2-yl)oxy)methyl)phosphoryl)bis(azanediyl))bis(2-methylpropanoate)]
[1]
  CC50 at 5 days: 3310 nM
HBV
  pEC50: 8.84
[2]
  CC50 at 5 days: > 100 nM
[3]
  solubility kinetic at 24 h: 76 µg/mL (≈ 123 µM)

## CCCCCCOC(=O)C(C)(C)NP(=O)(CO[C@H](C)Cn1cnc2c(=N)n(Cc3oc(=O)oc3C)cnc21)NC(C)(C)C(=O)OCCCCCC [Example 83, Dihexyl 2,2′-(((((1-(6-imino-1-((5-methyl-2-oxo-1,3-dioxol-4-yl)methyl)-1,6-dihydro-9H-purin-9-yl)propan-2-yl)oxy)methyl)phosphoryl)bis(azanediyl))(R)-bis(2-methylpropanoate)]
[1]
  CC50 at 5 days: 6600 nM
HBV
  pEC50: 8.67
[2]
  CC50 at 5 days: > 100 nM
[3]
  solubility kinetic at 24 h: 33 µg/mL (≈ 44.7 µM)

## CCCCCCOC(=O)C(C)(C)NP(=O)(CO[C@H](C)Cn1cnc2/c(=N\Cc3oc(=O)oc3C)n(Cc3oc(=O)oc3C)cnc21)NC(C)(C)C(=O)OCCCCCC [Example 84, Dihexyl 2,2′-(((((1-(1-((5-methyl-2-oxo-1,3-dioxol-4-yl)methyl)-6-(((5-methyl-2-oxo-1,3-dioxol-4-yl)methyl)imino)-1,6-dihydro-9H-purin-9-yl)propan-2-yl)oxy)methyl)phosphoryl)bis(azanediyl))(R,E)-bis(2-methylpropanoate)]
[1]
  CC50 at 5 days: 10600 nM
HBV
  pEC50: 8.47
[2]
  CC50 at 5 days: > 100 nM
[3]
  solubility kinetic at 24 h: 8 µg/mL (≈ 9.41 µM)

## C[C@H](Cn1cnc2c(N)ncnc21)OCP(=O)(NC(C)(C)C(=O)OC1CC2(CCCCC2)C1)NC(C)(C)C(=O)OC1CC2(CCCCC2)C1 (stereo partly drawn) [Example 86, Di(spiro[3.5]nonan-2-yl) 2,2′-(((((1-(6-amino-9H-purin-9-yl)propan-2-yl)oxy)methyl)phosphoryl)bis(azanediyl))(R)-bis(2-methylpropanoate)]
[1]
  CC50 at 5 days: 3730 nM
HBV
  pEC50: 8.50
[2]
  CC50 at 5 days: > 100 nM
[3]
  solubility kinetic at 24 h: 2 µg/mL (≈ 2.85 µM)

## C[C@H](Cn1cnc2c(N)ncnc21)OCP(=O)(NC(C)(C)C(=O)OCC1CCC(F)(F)CC1)NC(C)(C)C(=O)OCC1CCC(F)(F)CC1 [Example 88, Bis((4,4-difluorocyclohexyl)methyl) 2,2′-(((((1-(6-amino-9H-purin-9-yl)propan-2-yl)oxy)methyl)phosphoryl)bis(azanediyl))(R)-bis(2-methylpropanoate)]
[1]
  CC50 at 5 days: 7290 nM
HBV
  pEC50: 8.60
[2]
  CC50 at 5 days: > 100 nM
[3]
  solubility kinetic at 24 h: 69 µg/mL (≈ 95.6 µM)

## C[C@H](Cn1cnc2c(N)ncnc21)OCP(=O)(NC(C)(C)C(=O)OC1CC(C2CCC2)C1)NC(C)(C)C(=O)OC1CC(C2CCC2)C1 (stereo partly drawn) [Example 90, Di([1,1′-bi(cyclobutan)]-3-yl) 2,2′-(((((1-(6-amino-9H-purin-9-yl)propan-2-yl)oxy)methyl)phosphoryl)bis(azanediyl))(R)-bis(2-methylpropanoate)]
[1]
  CC50 at 5 days: 5510 nM
HBV
  pEC50: 8.53
[2]
  CC50 at 5 days: > 100 nM
[3]
  solubility kinetic at 24 h: 7 µg/mL (≈ 10.4 µM)
